Test results as given in article PMC9391200, “Charge-based interactions through peptide position 4 drive diversity of antigen presentation by human leukocyte antigen class I molecules” (PNAS Nexus, 2022).

What was measured:
HLA-A*24:02 [1] = biological target: T1, HLA-A*24:02 (Homo sapiens, UniProt P04439, D101N/D140Y/D185E/E176V/E190D/F33S/G103R/G107R/I119L/I121M/I306V/K335N/L105A/L180Q/L300P/N151K/N90K/Q86E/Q94H/R106L/R138H/R89G/T104I/T345S/V100E/W191G/Y123F); assay: Peptide binding assay on WT HLA-A*24:02 (W6/32 donor/acceptor bead assay); conditions: recombinant HLA-A*24:02 preincubated with varying peptide concentrations; streptavidin donor beads and W6/32-conjugated acceptor beads; EnVision read-out; reference peptide TYTQDFNKF; result in words
From the text: (§1) All HLA-A*02:01- and A*24:02-restricted peptides used in the study were purchased from Genscript at purity of > 80% with quality control by reverse-phase HPLC and mass spectrometry (SC1208). Recombinant HLA-A*02:01 and HLA-A*24:02 molecules were made and re-folded as described elsewhere ([83]). Conformation-dependent W6/32 antibodies used in these assays were produced in vitro from hybridoma cell lines (Integra, Chur, Switzerland). All A*02:01 and A*24:02 binding assays were done as described previously ([83]). In brief, streptavidin donor beads (PerkinElmer, 6760002) and acceptor beads (PerkinElmer, 6762001) conjugated to W6/32 were incubated with A*02:01 or A*24:02 that had been preincubated with varying peptide concentrations. Plates were read by PerkinElmer EnVision and data was analyzed using GraphPad Prism. Peptide stability assays were performed as described previously ([84]). In brief, biotinylated A*02:01 and A*24:02 molecules were refolded with excess peptide then incubated with 0, 2, 4, or 6 M urea. Nondenatured peptides were detected by W6/32 staining using ELISA as described previously ([85]). Stability was calculated as a percentage relative to a reference known binder peptide with an assigned stability index of 100%. […] was used as the reference peptide for A*02:01 and TYTQDFNKF was used as the reference peptide for A*24:02 in both the binding and stability assays.

HLA-A*24:02 [2] = biological target: T1, HLA-A*24:02; assay: Peptide stability assay on WT HLA-A*24:02 (urea denaturation, W6/32 ELISA); type: binding; conditions: biotinylated A*24:02 refolded with excess peptide, incubated with 0, 2, 4 or 6 M urea, relative to reference peptide TYTQDFNKF (stability index 100%), result in words
From the text: as §1

In the case of TFSDEAVHF, the “peptide binding to WT A*24:02” value (HLA-A*24:02 [1]) is reported as “weak-binding”.
For “QFKDNVILL [native A*24:02-restricted peptide with subdominant anchors F2 and LΩ]”, the “peptide binding to WT A*24:02” value (HLA-A*24:02 [1]) was “relatively poor binding”.
For VYGFVRACL, the “peptide binding to WT A*24:02” value (HLA-A*24:02 [1]) was “strong-binding”.
In the case of KFKDNVILL [p1 lysine-substituted …], the “HLA-A*24:02/peptide complex stability” value (HLA-A*24:02 [2]) is reported as “increased”.
